Results published in PMC11451730, “A Fragment-Based Screen for Inhibitors of Escherichia coli N5-CAIR Mutase” (Research Square, 2024).

Experiments:
E. coli N5-CAIR mutase [1] = molecular target: T1, E. coli N5-CAIR mutase (Escherichia coli, UniProt P0AG18); test: biochemical; format: biochemical
T1 construct: His-tag (inferred from cobalt-resin/imidazole purification); made in house; host or cells: E. coli BL21(DE3), plasmid pJK057 (Addgene)
T1 sequence (P0AG18 1-169): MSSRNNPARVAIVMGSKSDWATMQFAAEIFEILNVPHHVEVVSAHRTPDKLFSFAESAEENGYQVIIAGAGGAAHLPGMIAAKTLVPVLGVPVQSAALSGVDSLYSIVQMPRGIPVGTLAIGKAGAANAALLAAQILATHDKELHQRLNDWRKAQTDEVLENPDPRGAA

[2] = molecular target: Gallus gallus AIR carboxylase; conditions: cited from earlier work
bacterial N5-CAIR mutase = conditions: bacterial enzyme; cited from earlier work
[3] = test system: Gallus gallus AIR carboxylase; test: Inhibition of AIR carboxylase by NAIR (literature); format: biochemical
E. coli N5-CAIR mutase [4] = molecular target: T1, E. coli N5-CAIR mutase; test: Thermal shift assay (thermal binding assay); conditions: NAIR 20 μM, eight replicates; enzyme alone 57 ± 0.36°C

Row | SMILES | Ki (E. coli N5-CAIR mutase [1]) | mechanism of inhibition (E. coli N5-CAIR mutase [1]) | other results
1 | CN1CCCC(c2cnc(-c3ncco3)cn2)C1 (stereo not drawn) [Compound 2] | 4.8 µM | sigmoidal Michaelis-Menten curve | –
2 | Cc1cnc(-c2ccc(C3CCCNC3)nc2)s1 (stereo not drawn) [Compound 9] | 83 µM | competitive | –
3 | CN1CCCC(Cc2cccnc2)C1 (stereo not drawn) [Compound 10] | – | – | inhibition of enzyme activity (E. coli N5-CAIR mutase [1]): no inhibition
4 | Cc1nc(-c2ccc(C3CCCN3)nc2)sc1C (stereo not drawn) [Compound 22] | 159 µM | uncompetitive | –
5 | c1cnc(CC2CCNC2)nc1 (stereo not drawn) [Compound 25] | 31 µM | non-competitive | –
6 | Cc1ccc(Nc2nnns2)cc1 [Compound 34, reference compound] | – | – | inhibition of E. coli N5-CAIR mutase (E. coli N5-CAIR mutase [1]): do not show inhibition
7 | CCc1ccc(C(=O)Nc2nncs2)s1 [Compound 35, reference compound] | – | – | inhibition of E. coli N5-CAIR mutase (E. coli N5-CAIR mutase [1]): do not show inhibition
8 | Nc1c([N+](=O)[O-])ncn1[C@@H]1O[C@H](COP(=O)(O)O)[C@@H](O)[C@H]1O [NAIR, 4-nitro-5-aminoimidazole ribonucleotide] | – | – | Ki [2]: 0.00034 µM; Ki (bacterial N5-CAIR mutase): 0.5 µM; selectivity for AIR carboxylase over N5-CAIR mutase [3]: 1000 fold; average melting temperature of N5-CAIR mutase with compound bound (E. coli N5-CAIR mutase [4]): 75 ± 0.32 °C
